Results reported in patent US4937232A, “Inhibition of protein kinase C by long-chain bases” (priority 1988, dated 1990).
Where two headings read alike, the source gives them in different places.

Legend:
[1] = tested on: phorbol ester receptor of HL-60 cells (protein kinase C); assay: Competition for [3H]phorbol dibutyrate binding by HL-60 cells; design: species or system human; conditions: 12 nM [3H]phorbol dibutyrate, 1 h at 37°; read-out: 50% inhibition of [3H]phorbol dibutyrate binding
Experimental: Competitive binding assays were conducted as described by Goodwin and Weinberg (J. Clin. Invest, 70, 699-706, 1982 and Ebling et al (ibid.). Approximately 1×10^6 cells/ml were incubated with 12 nM [^3 H]phorbol dibutyrate (8.3 Ci/mmol) and varying concentrations of sphinganine (1:1 with BSA) for 1 h at 37°. The cells were recovered on Millipore filters, washed, and counted. The data were corrected for nonspecific binding by subtracting the cpm obtained in the presence of 300 nM PMA.

[2] = HL-60 cell growth and viability; format: cell-based, human; conditions: human, hl-60 cells, 24 h; for viability at 24 h, 2.5 µM: 2.5 μM sphinganine; for viability at 24 h, 5 µM: 5 μM sphinganine
Experimental: (§1) The HL-60 cells (obtained from the American Type Culture Collection, ATCC CCL240) were grown at 37° as a suspension culture in 175 cm^2 Nunc tissue culture flasks (Vangard International, Neptune, N.J.). The cells were subcultured at a density of 0.25×10^6 cells/ml and used between passage numbers 30 and 40.
(§2) Cells were centrifuged at 600 g for 3 min, and added at 1×10^5 cells per well in 12-well culture dishes. Medium, PMA, and long-chain bases (prepared as the 1:1 molar complex with fatty acid-free bovine serum albumin) at the indicated concentrations were added for a total volume of 2.0 ml. After the desired times, the cells in suspension were counted and checked for viability (trypan blue exclusion) with a hemacytometer. The attached cells were quantitated by measuring DNA content according to the method of West et al (Anal. Biochem., 147, 289-295, 1985) and by assaying for acid phosphatase according to the method of Schnyder (J. Exp. Med., 148, 434-445, 1978).

[3] = tested on: HL-60 cells; assay: HL-60 cell growth and viability; format: cell-based, human
Experimental: as §1, §2

[4] = tested on: HL-60 cells; assay: Dioctanoylglycerol-induced attachment of HL-60 cells; format: cell-based; conditions: Homo sapiens
Experimental: When 1,2-dioctanoylglycerol was used, the cells were treated essentially as described by Ebling et al Proc. Natl. Acad. Sci. U.S.A. 82, 815-819, 1985. Sphinganine was added to the cells, then dioctanoylglycerol in 1 μl of ethanol to yield 100 μM, followed by additional maintenance additions of 20 μm diacylglycerol every 2 h for 12 h.

[5] = target: protein kinase C; assay: Phorbol-dibutyrate binding to protein kinase C, mixed micellar assay (Table VI); conditions: Triton X-100 mixed micelles, 20 mol % phosphatidylserine
Experimental: TABLE VI: Inhibition of protein kinase C activity and phorbol-dibutyrate binding by lysosphingolipids. […] The remaining two columns show the observed effects of the lysosphingolipids of protein kinase C activity and phorbol diester binding in vitro and in human platelets. Lysogangliosides were prepared from their parental gangliosides by hydrolysis in methanolic KOH esentially as described by Neuenhofer et al. in Bioch. 24, 525, 1985. During this preparation, with approximately 90-95% conversion, the N-acetate of N-acetylneuraminic acid is partially hydrolyzed. Fatty acids were partitioned into heptane after acidification of the methanolic reaction mixture. Galactosylsphingosine, glucosylsphingosine, and lactosylsphingosine were prepared as previously described for galactosylsphingosine (Radin, Lipids 9, 358, 1974) Sphingosylphosphorylcholine was prepared by hydrolysis in HCl-butanol (Kaller, Biochemische Zeitschrift 334, 451, 1961). The purity of the lyso derivatives (greater than 90%) was checked by thin layer chromatography (TLC) on silica gel H plates developed in chloroform/methanol/2N NH4 OH (65/35/9) and visualized by ninhydrin reaction for N-lyso compounds, by α-naphthol/sulfuric acid for both gangliosides and lysogangliosides,and by a phospholipid spray for sphingosylphosphorylcholine. Lysosphingolipids were quantitated by reaction of the amine group with trinitrobenzenesulfonate. Gangliosides and lysosphingolipids were also quantitated by reaction with anthrone. The lysosphingolipids were then studied for their effect on protein kinase C activity. Protein kinase C was purified to near homogeneity by the method of Wolf et al. (J. Biol. Chem. 260, 15718, 1985), and activity was measured using a mixed micellar assay (described herein). Lysosphingolipids were added directly in aqueous solution, and allowed to equilibrate with the Triton X-100 (0.3% w/v) mixed micelles containing 6 mol % phosphatidylserine and 2 mol % dioleoylglycerol. […] Phorbol-dibutyrate binding was measured in a mixed micellar assay. Lysosphingolipids inhibited phorbol-dibutyrate binding to protein kinase C in the presence of Triton X-100 mixed micelles containing 20 mol % phosphatidylserine. […] The difference is related to the higher concentration of phosphatidylserine used in the binding assay, as both activity and binding show a high cooperative dependence on phosphatidylserine, which modulates the inhibition by lysosphingolipids. Phorbol-dibutyrate binding to human platelets and 40 kDa phosphorylation in platelets were carried out as described above. Lysosphingolipids inhibited phorbol dibutyrate binding to human platelets at concentrations in the 10-50 μM range. Inhibition of 40 kDa phosphorylation occurred over the same concentration range.

[6] = tested on: protein kinase C; assay: [3H]PDBu binding to protein kinase C in mixed micelles; design: species or system rat; conditions: 16 and 20 mol % PS
Experimental: [^3 H]PDBu binding was performed as previously described (26).

[7] = 8 nM PMA, read-out: Percent viability of suspended cells
[8] = No PMA, read-out: Percent viability of suspended cells

SMILES: CCCCCCCCCCCCCCC[C@@H](O)[C@@H](N)CO (relative stereo) [Sphinganine, erythro-dihydrosphingosine]
- IC50 [1]: ~15 µM
- viability at 24 h, 1 µM ([2]; 8 nM PMA + 1 μM sphinganine, read-out: % Viability): 93%
- viability at 24 h, 1 µM ([2]; 8 nM PMA, 1 μM sphinganine, read-out: Percent viability of suspended cells): 87%
- viability at 24 h, 2.5 µM [2, 7]: 94%
- viability at 24 h, 5 µM [2, 7]: 80%
- viability at 24 h, 1 µM ([2]; 1 μM sphinganine, no PMA, read-out: % Viability): 95%
- viability at 24 h, 1 µM ([2]; No PMA, 1 μM sphinganine, read-out: Percent viability of suspended cells): 90%
- viability at 24 h, 2.5 µM [2, 8]: 98%
- viability at 24 h, 5 µM [2, 8]: 87%
- HL-60 cell growth (doubling) ([3]; 1 μM sphinganine, first 24 h): not changed
- HL-60 cytotoxicity ([3]; 5 μM sphinganine, second day): significant cell death
- HL-60 cell growth ([3]; 1 and 2.5 μM sphinganine, second day): inhibited growth without cytotoxicity
- HL-60 cell growth ([3]; 2.5 and 5 μM sphinganine, first 24 h): limited growth
- activity at 1 µM ([4]; 1.0 μM sphinganine, compared to cells treated with diacylglycerol only, read-out: % Viable cells attached): 70 ± 32%
- activity at 2.5 µM ([4]; 2.5 μM sphinganine, compared to cells treated with diacylglycerol only, read-out: % Viable cells attached): 63 ± 21%
- activity at 5 µM ([4]; 5.0 μM sphinganine, compared to cells treated with diacylglycerol only, read-out: % Viable cells attached): 50 ± 25%
- IC50 ([4]; 100 μM dioctanoylglycerol, maintenance doses 20 μM every 2 h, read-out: concentration reducing dioctanoylglycerol-induced adherence by 50%): ~5 µM

SMILES: CCCCCCCCCCCCC/C=C/[C@@H](O)[C@@H](N)CO [sphingosine]
- Inhibition of [3H]PDBu Binding to Protein Kinase, (mol %) [5]: 9.3 mol %
- IC50 ([5]; read-out: Inhibition of [3H]PDBu Binding to Protein Kinase): 400 µM
- inhibition of phorbol-ester binding to mixed micelles [6]: inhibited
